From patent publication US8716303B2, “N-(hetero)aryl-pyrrolidine derivatives of pyrazol-4-yl-pyrrolo[2,3-d]pyrimidines and pyrrol-3-yl-pyrrolo[2,3-d]pyrimidines as janus kinase inhibitors” (Incyte Corporation, priority 2009, dated 2014)
Where a name gives a salt, the structure may show the parent alone.

Tests used:
[1] = molecular target: T1, human JAK1 (a.a. 837-1142) (Homo sapiens, UniProt P23458); test: In vitro JAK kinase assay (HTRF, phosphorylation of a biotinylated peptide), JAK1; assay type: biochemical
T1 construct: human JAK1 (a.a. 837-1142); His tag (N); made in house; host or cells: insect cells (baculovirus)
Outline: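 IC50s come from HTRF detection (Eu-Py20, SA-APC, 40 min binding) after 1 h RT reactions with 500 nM biotinylated peptide in Tris pH 7.8 buffer. ATP either 1 mM or Km-level, 90 μM for JAK1 and 30 μM for JAK2; enzymes are baculovirus-expressed His-tagged catalytic domains (JAK1 837-1142, JAK2 828-1132).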

Jak2 (a.a. 828-1132) = molecular target: T2, Jak2 (a.a. 828-1132) (Homo sapiens, UniProt O60674); test: In vitro JAK kinase assay (HTRF, phosphorylation of a biotinylated peptide), JAK2, reported as JAK2/JAK1 ratio; assay type: biochemical
T2 construct: Jak2 (a.a. 828-1132); His tag (N); made in house; host or cells: insect cells (baculovirus)

[2] = Assay Conditions Km (ATP 90 μM for Jak1)
[3] = Assay Conditions Km (ATP 90 μM for Jak1, 30 μM for Jak2)

T1 sequence (P23458 849-1154): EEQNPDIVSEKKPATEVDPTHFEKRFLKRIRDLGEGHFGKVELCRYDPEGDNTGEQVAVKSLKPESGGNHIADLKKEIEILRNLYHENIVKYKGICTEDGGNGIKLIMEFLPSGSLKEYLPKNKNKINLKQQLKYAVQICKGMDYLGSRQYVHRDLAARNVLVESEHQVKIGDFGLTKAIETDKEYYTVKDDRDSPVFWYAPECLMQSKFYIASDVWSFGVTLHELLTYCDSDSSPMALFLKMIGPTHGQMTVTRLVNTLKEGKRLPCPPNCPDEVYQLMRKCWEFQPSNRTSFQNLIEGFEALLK
T2 sequence (O60674 828-1132): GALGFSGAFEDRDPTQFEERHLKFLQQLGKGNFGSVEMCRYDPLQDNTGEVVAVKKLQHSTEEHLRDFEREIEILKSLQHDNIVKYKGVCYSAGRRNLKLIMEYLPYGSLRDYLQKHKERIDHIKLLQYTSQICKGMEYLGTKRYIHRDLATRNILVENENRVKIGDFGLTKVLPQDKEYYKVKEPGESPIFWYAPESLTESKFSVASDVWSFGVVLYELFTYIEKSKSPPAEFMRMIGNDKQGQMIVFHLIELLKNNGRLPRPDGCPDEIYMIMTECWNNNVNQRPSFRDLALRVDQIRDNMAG

Row | SMILES | IC50 ([1]; Assay Conditions 1 mM ATP) | JAK2/JAK1 IC50 ratio (Jak2 (a.a. 828-1132); Assay Conditions 1 mM ATP) | IC50 [1, 2] | JAK2/JAK1 IC50 ratio (Jak2 (a.a. 828-1132); [3])
1 | N#CC[C@@H]([C@H]1CCN(c2nc(Cl)c(C#N)cc2F)C1)n1cc(-c2ncnc3[nH]ccc23)cn1 [Example 63, 6-((S)-3-((S)-1-(4-(7H-pyrrolo[2,3-d]pyrimidin-4-yl)-1H-pyrazol-1-yl)-2-cyanoethyl)pyrrolidin-1-yl)-2-chloro-5-fluoronicotinonitrile trifluoroacetate salt] | < 50 nM | 7.3 | – | –
2 | N#CCC(C1CCN(c2nc3cncnc3o2)C1)n1cc(-c2ncnc3[nH]ccc23)cn1 (single isomer, unassigned) [Example 18, 3-(1-[1,3]oxazolo[5,4-d]pyrimidin-2-ylpyrrolidin-3-yl)-3-[4-(7H-pyrrolo[2,3-d]pyrimidin-4-yl)-1H-pyrazol-1-yl]propanenitrile] | 50 to 100 nM | 10.3 | – | –
3 | N#Cc1ccnc(N2CC[C@H](C(CF)n3cc(-c4ncnc5[nH]ccc45)cn3)C2)c1C#N (stereo partly drawn) [Example 120, 2-((3S)-3-(1-(4-(7H-pyrrolo[2,3-d]pyrimidin-4-yl)-1H-pyrazol-1-yl)-2-fluoroethyl)pyrrolidin-1-yl)pyridine-3,4-dicarbonitrile trifluoroacetate] | < 50 nM | 3.5 | – | –
4 | CC(F)c1ccnc(N2CC[C@H]([C@H](CC#N)n3cc(-c4ncnc5[nH]ccc45)cn3)C2)c1C#N (stereo partly drawn) [Example 136, 2-((3S)-3-{(1S)-2-cyano-1-[4-(7H-pyrrolo[2,3-d]pyrimidin-4-yl)-1H-pyrazol-1-yl]ethyl}pyrrolidin-1-yl)-4-(1-fluoroethyl)nicotinonitrile trifluoroacetate] | < 50 nM | >5 | – | –
5 | N#CC[C@@H]([C@H]1CCN(c2nccc(C(F)F)c2C#N)C1)n1cc(-c2ncnc3[nH]ccc23)cn1 [Example 103, 2-((3S)-3-{(1S)-2-cyano-1-[4-(7H-pyrrolo[2,3-d]pyrimidin-4-yl)-1H-pyrazol-1-yl]ethyl}pyrrolidin-1-yl)-4-(difluoromethyl)nicotinonitrile bis(trifluoroacetate)] | < 50 nM | 22.8 | – | –
6 | CN(C)c1ccnc(N2CCC(C(CC#N)n3cc(-c4ncnc5[nH]ccc45)cn3)C2)n1 (centres unmarked) [Example 6, 3-{1-[4-(dimethylamino)pyrimidin-2-yl]pyrrolidin-3-yl}-3-[4-(7H-pyrrolo[2,3-d]pyrimidin-4-yl)-1H-pyrazol-1-yl]propanenitrile] | – | – | < 50 nM | >5
7 | N#CCC(C1CCN(c2nc3cc(F)cc(F)c3o2)C1)n1cc(-c2ncnc3[nH]ccc23)cn1 (single isomer, unassigned) [Example 22, 3-[1-(5,7-difluoro-1,3-benzoxazol-2-yl)pyrrolidin-3-yl]-3-[4-(7H-pyrrolo[2,3-d]pyrimidin-4-yl)-1H-pyrazol-1-yl]propanenitrile] | < 50 nM | >7 | – | –
8 | CN(C)C(=O)c1cc(N2CCC(C(CC#N)n3cc(-c4ncnc5[nH]ccc45)cn3)C2)ccn1 (single isomer, unassigned) [Example 153, 4-(3-{2-cyano-1-[4-(7H-pyrrolo[2,3-d]pyrimidin-4-yl)-1H-pyrazol-1-yl]ethyl}pyrrolidin-1-yl)-N,N-dimethylpyridine-2-carboxamide] | < 50 nM | >11.1 | – | –
9 | Cc1cccc(N2CC[C@H]([C@H](CC#N)n3cc(-c4ncnc5[nH]ccc45)cn3)C2)c1C#N [Example 53, 2-((3S)-3-{(1S)-2-cyano-1-[4-(7H-pyrrolo[2,3-d]pyrimidin-4-yl)-1H-pyrazol-1-yl]ethyl}pyrrolidin-1-yl)-6-methylbenzonitrile trifluoroacetate salt] | < 50 nM | >7.7 | – | –

Other lines, results leading:

Row | IC50 ([1]; Assay Conditions 1 mM ATP) | JAK2/JAK1 IC50 ratio (Jak2 (a.a. 828-1132); Assay Conditions 1 mM ATP) | IC50 [1, 2] | JAK2/JAK1 IC50 ratio (Jak2 (a.a. 828-1132); [3]) | SMILES
10 | < 50 nM | >8.7 | – | – | N#CCC(C1CCN(c2nc3cccc(CO)c3o2)C1)n1cc(-c2ncnc3[nH]ccc23)cn1 (single isomer, unassigned) [Example 166, 3-{1-[7-(hydroxymethyl)-1,3-benzoxazol-2-yl]pyrrolidin-3-yl}-3-[4-(7H-pyrrolo[2,3-d]pyrimidin-4-yl)-1H-pyrazol-1-yl]propanenitrile]
11 | – | – | 50 to 100 nM | 0.2 | N#CCC(C1CCN(c2nc3cccnc3o2)C1)n1ccc(-c2ncnc3[nH]ccc23)c1 (single isomer, unassigned) [32, Step 2b (racemate)]
12 | < 50 nM | >5.4 | – | – | N#CCC(C1CCN(c2ncc3cc[nH]c3c2C#N)C1)n1cc(-c2ncnc3[nH]ccc23)cn1 (single isomer, unassigned) [Example 177, 6-(3-{2-cyano-1-[4-(7H-pyrrolo[2,3-d]pyrimidin-4-yl)-1H-pyrazol-1-yl]ethyl}pyrrolidin-1-yl)-1H-pyrrolo[3,2-c]pyridine-7-carbonitrile]
13 | < 50 nM | 3.3 | – | – | CCOc1cccc2nc(N3CCC(C(CC#N)n4cc(-c5ncnc6[nH]ccc56)cn4)C3)oc12 (single isomer, unassigned) [Example 163, 3-(4-(7H-pyrrolo[2,3-d]pyrimidin-4-yl)-1H-pyrazol-1-yl)-3-(1-(7-ethoxybenzo[d]oxazol-2-yl)pyrrolidin-3-yl)propanenitrile]
14 | – | – | < 50 nM | 3.7 | N#CCC(C1CCN(c2cccc(Cl)n2)C1)n1cc(-c2ncnc3[nH]ccc23)cn1 (single isomer, unassigned) [2, Step 2b]
15 | < 50 nM | 4.3 | – | – | N#CC[C@@H]([C@H]1CCN(c2nc(Cl)c(CO)cc2F)C1)n1cc(-c2ncnc3[nH]ccc23)cn1 [Example 90, (3S)-3-{(3S)-1-[6-chloro-3-fluoro-5-(hydroxymethyl)pyridin-2-yl]pyrrolidin-3-yl}-3-[4-(7H-pyrrolo[2,3-d]pyrimidin-4-yl)-1H-pyrazol-1-yl]propanenitrile trifluoroacetate]
16 | < 50 nM | 6.5 | – | – | N#CC[C@@H]([C@H]1CCN(c2c(C#N)cccc2C#N)C1)n1cc(-c2ncnc3[nH]ccc23)cn1 [Example 59, 2-((3S)-3-{(1S)-2-cyano-1-[4-(7H-pyrrolo[2,3-d]pyrimidin-4-yl)-1H-pyrazol-1-yl]ethyl}pyrrolidin-1-yl)isophthalonitrile trifluoroacetate salt]
17 | – | – | < 50 nM | 2.2 | N#CCC(C1CCN(c2nc(Br)cs2)C1)n1cc(-c2ncnc3[nH]ccc23)cn1 (centres unmarked) [Example 5, 3-[1-(4-bromo-1,3-thiazol-2-yl)pyrrolidin-3-yl]-3-[4-(7H-pyrrolo[2,3-d]pyrimidin-4-yl)-1H-pyrazol-1-yl]propanenitrile trifluoroacetate]
18 | – | – | < 50 nM | 2.9 | N#CCC(C1CCN(c2nc3cnccc3o2)C1)n1cc(-c2ncnc3[nH]ccc23)cn1 (single isomer, unassigned) [Example 11, 3-(1-[1,3]oxazolo[4,5-c]pyridin-2-ylpyrrolidin-3-yl)-3-[4-(7H-pyrrolo[2,3-d]pyrimidin-4-yl)-1H-pyrazol-1-yl]propanenitrile]
19 | < 50 nM | 5.9 | – | – | CSc1nc(N2CC[C@H]([C@H](CC#N)n3cc(-c4ncnc5[nH]ccc45)cn3)C2)c(F)cc1F [Example 129, (3S)-3-{(3S)-1-[3,5-Difluoro-6-(methylthio)pyridin-2-yl]pyrrolidin-3-yl}-3-[4-(7H-pyrrolo[2,3-d]pyrimidin-4-yl)-1H-pyrazol-1-yl]propanenitrile]
